What was measured:
[1] = test system: RNA3WJ_1.0.0_5IB_3FAM (cis 3WJ with one unpaired nucleotide); assay: Thermal shift binding assay; conditions: RNA3WJ_1.0.0_5IB_3FAM; for Melting temp [° C.] + cmpd / Temp. Shift [° C.]: 1 μM RNA, 8 μM compound, 1% DMSO, 10 mM CacoK pH 7.2, 30 mM NaCl
Excerpt: (§1) Purpose: Test binding of compounds for RNA three way junction (for example, a construct of 38 nt). Thermal shift assay based on established fluorescence quenching assay utilizing FAM as fluorescence tag and Iowa Black as quencher. Tags were attached at the 3′ and 5′ end, respectively. Stable formation of 3WJ upon compound binding would lead to quenching of the FAM fluorescence due to close proximity of the Iowa Black tag. Thermal unfolding leads to increase of fluorescence emission. Assay readout: FAM (465-510 nm) Thermal Shift.
(§2) Assay sample buffer used: 10 mM CacoK pH 7.2, 30 mM NaCl. Buffer preparation in Dnase/Rnase Free distilled water (Gibco Life Technologies).
(§3) Tool compounds provided as dry powder are prepared as 50 mM stock solution in 100% d6-DMSO. Stock solutions of 50 mM concentration in d6-DMSO are stored at RT.
(§4) Sample plate: Roche, Light Cycler480 Multiwell Plate96, white, REF 04729692001. (Dilution plate: Greiner REF 781101, PS-Microplate, 384 well, clear). Thermal Shift device: Roche, Light Cycler480.
(§5) Daily fresh (10 ml): 1 ml 100 mM CacoK pH 7.2 and 0.3 ml 1 M NaCl filled up to 10 ml with Dnase/Rnase Free distilled water.
(§6) Dilute the RNA 1:10 (final 10 μM) in Assay Buffer.
(§7) Heat up the diluted RNA up to 90° C. for 5 min (sealed Eppendorf Tube).
(§8) Cool down the RNA probe slowly to RT.
(§9) Dilute the compounds to 800 μM in DMSO (Assay: 8 μM).
(§10) 78.4 μL Assay Buffer are pipetted into Greiner REF 781101, PS-Microplate, 384 (each well needed).
(§11) Add 0.8 μL of the RNA-Solution ([…]).
(§12) Add 0.8 μL Compound-Solution ([…]).
(§13) Final concentrations in the sample: 1 μM RNA, 8 μM compound, 1% DMSO
(§14) Pipet 20 μL Sample Solution into Roche, Light Cycler480 Multiwell Plate96, white, REF 04729692001.
(§15) When sample transfer is finished, seal the plate with a clear topseal (part of REF 04729692001).
(§16) Centrifuge the plate with a table-top device to spin down the samples.
(§17) Measure the 96 plate with the LightCycler480 (Channel: 480/510 nm; Temperature: 41-91° C.).
(§18) Analyse measurement-data with the MeltingCurveGenotyping Mode.
(§19) Settings: Acquisition mode: continuous; Ramp rate: 0.1 C.°/sec; Acquisition: 6/C.° Melt Curve Genotyping for All Samples
(§20) Melting curves analysis show melting temperature (Tm) of ˜51° C. Range of RNA concentrations was tested and assay window was determined (conc. range of 0.5-1 μM yields best results). The choice of buffer also affected the Tm. RNA constructs were tested under different buffer conditions (especially in presence of salt) in the thermal shift assay. […] CacoK with 30 mM salt at 1 μM RNA conc. was used to assess compound effects on 3WJ stability. […] These conditions were used for screening test compounds.
(§21) Compounds Ark0000013 and Ark0000014 were also tested in the thermal shift assay against three RNA 3WJ constructs, A) RNA3WJ_1.0.0_5IB_3FAM (cis 3WJ with one unpaired nucleotide); B) Split3WJ.1_up_5IB+Split3WJ.1_down_3FAM (trans 3WJ as 1:1 mix); and C) Split3WJ.2_up_5IB+Split3WJ.2_down_3FAM (trans 3WJ as 1:1 mix).

[2] = test system: Split3WJ.1_up_5IB+Split3WJ.1_down_3FAM (trans 3WJ as 1:1 mix; Split3WJ_1); assay: Thermal shift binding assay; conditions: Split3WJ_1 (trans 3WJ), 1 μM RNA, 8 μM compound
Excerpt: as §1, §2, §3, §4, §5, §6, §7, §8, §9, §10, §11, §12, §13, §14, §15, §16, §17, §18, §19, §20, §21

[3] = test system: Split3WJ.2_up_5IB+Split3WJ.2_down_3FAM (trans 3WJ as 1:1 mix; Split3WJ_2); assay: Thermal shift binding assay; conditions: Split3WJ_2 (trans 3WJ), 1 μM RNA, 8 μM compound
Excerpt: as §1, §2, §3, §4, §5, §6, §7, §8, §9, §10, §11, §12, §13, §14, §15, §16, §17, §18, §19, §20, §21

RNA3WJ_3.0.0_5IB_3FAM = assay: Thermal shift binding assay; conditions: 1 μM RNA, 8 μM compound
Excerpt: as §1, §2, §3, §4, §5, §6, §7, §8, §9, §10, §11
Add 0.8 μL Compound-Solution ([…]). […]
as §14, §15, §16, §17, §18, §19, §20

[4] = test system: RNA3WJ_1.0.0_5IB_3FAM (cis 3WJ with one unpaired nucleotide); assay: Fluorescence quenching binding assay; conditions: cis 3WJ RNA3WJ_1.0.0_5IB_3FAM; two concentration points; FIG. 109
Procedure: (§22) This assay will be used to test binding of compounds for RNA three way junction (such as a 38 nt construct). This is a fluorescence quenching assay utilizing FAM as fluorescence tag and Iowa Black as quencher. Tags are attached at the 3′ and 5′ end, respectively. Stable formation of MW upon compound binding would lead to quenching of the FAM fluorescence due to close proximity of the Iowa Black tag. Assay readout: FAM (485-520 nm) Fluorescence Intensity.
as §2, §3
(§23) Sample plate: Greiner cat #784076, black, 384 (Dilution plate: Greiner REF 781101, PS-Microplate, 384 well, clear). Fluorescence Intensity device: Envision 1040285
(§24) Daily fresh (10 ml): 1 ml 100 mM CacoK pH 7.2 and 0.3 ml 1 M NaCl filled up to 10 ml with Dnase/Rnase Free distilled water […]
(§25) Calibration of the expected fluorescence signal at various RNA concentrations in either CacoK or NaPO4 buffers was performed first. Experiments in buffers containing salt show distinct fluorescence quenching behavior. […]
(§26) The fluorescence quenching experiment was repeated for compounds Ark0000013 and Ark0000014 to measure binding with: […]

[5] = test system: Split3WJ.2 up_5IB+Split3WJ.2_down_3FAM (trans 3WJ as 1:1 mix); assay: Fluorescence quenching binding assay; conditions: trans 3WJ Split3WJ.2; two concentration points; FIG. 109
Procedure: as §22, §2, §3, §23, §24, §25, §26

Row | Compound | Melting temp [° C.] + cmpd [1] [°C] | Temp. Shift [° C.] [1] [°C] | Effect in the melting curves (in words) ([1]; FIG. 111, listed as Ark000013) | Melting temp [° C.] + cmpd [2] [°C] | Temp. Shift [° C.] [2] [°C] | Temp. Shift [° C.] ([2]; listed as Ark000013) [°C] | Melting temp [° C.] + cmpd [3] [°C] | Temp. Shift [° C.] [3] [°C] | Temp. Shift [° C.] ([3]; listed as Ark000013) [°C] | Melting temp [° C.] + cmpd (RNA3WJ_3.0.0_5IB_3FAM) [°C] | Temp. Shift [° C.] (RNA3WJ_3.0.0_5IB_3FAM) [°C] | Effect in fluorescence quenching assay [4] | Effect in fluorescence quenching assay [5] | Melting temp [° C.] + cmpd ([1]; listed as Ark000014) [°C] | Temp. Shift [° C.] ([1]; listed as Ark000014) [°C] | Melting temp [° C.] + cmpd ([2]; listed as Ark000014) [°C] | Temp. Shift [° C.] ([2]; listed as Ark000014) [°C] | Melting temp [° C.] + cmpd ([3]; listed as Ark000014) [°C] | Temp. Shift [° C.] ([3]; listed as Ark000014) [°C]
1 | CN(CCCN)CCCNC(=O)c1ccc2c(c1)C1c3cc(C(=O)NCCCN(C)CCCN)ccc3C2c2ccc(C(=O)NCCCN(C)CCCN)cc21 [Ark0000013, N^2,N^7,N^15-tris(3-((3-aminopropyl)(methyl)amino)propyl)-9,10-dihydro-9,10-[1,2]benzenoanthracene-2,7,15-tricarboxamide] | 87.0 | 21.4 | significant effect | 58.2 | 20.4 | ~21 | 56.9 | 12.2 | ~13 | 83.7 | 21.7 | significant concentration dependent effect | significant concentration dependent effect |  |  |  |  |  | 
2 | NCCCCCCCNC(=O)c1ccc2c(c1)C1c3cc(C(=O)NCCCCCCCN)ccc3C2c2ccc(C(=O)NCCCCCCCN)cc21 [Ark0000014, N^2,N^7,N^15-tris(7-aminoheptyl)-9,10-dihydro-9,10-[1,2]benzenoanthracene-2,7,15-tricarboxamide] | 68.1 | 2.5 |  | 37.8 | 0.3 |  | 44.0 | −0.3 |  | 63.9 | 1.9 | smaller effect | smaller effect on the RNA constructs (Split3WJ_2 shows larger effect) | 68.4 | ~3 | 38.8 | ~1 | 44.7 | ~1

Reference: patent US20220281860A1, “COMPOUNDS AND METHODS OF TREATING RNA-MEDIATED DISEASES” (Arrakis Therapeutics, Inc., priority 2016, published 2022)
